≈ marks a conversion by molar mass, not a printed value. Where “and” joins values, the source holds several entries; their conditions need not be identical. Equal values may be shown once. Read-outs that look alike come from different tables or passages of the source.
Tests used:
[1] = system: K. pneumoniae ATCC 13883; test: MIC, broth microdilution (CLSI); format: cell-based, Klebsiella pneumoniae; settings: for MIC with β-lactamase inhibitor (βI): + 4 μg/mL clavulanic acid
Protocol: (§1) All bacterial strains (see description and sources Table S1) were stored at −80 °C, and grown on tryptone soya agar (TSA) at 35 °C. The iron-deprived (ID)-MHBCA (cation-adjusted Muller-Hinton Broth, Becton Dickinson, Mississauga, ON, Canada) medium was prepared as reported by refs. [21],[50]. Briefly, MHBCA was treated with 10% Chelex® 50-100 mesh (Sigma) and stirred for 6 h at room temperature. The resin was removed by filtration. Divalent Ca^2+ (CaCl2), Mg^2+ (MgCl2), and Zn^2+(ZnSO4), were then added in the iron-depleted medium at 22, 12, and 1 μg/ml respectively. Finally, the pH was adjusted to 7.3, and the medium was sterilized with a 0.2-μm filter. Regular MHBCA (i.e., not treated with Chelex®) was used to compare the inhibitory activity of conjugates in iron-sufficient conditions. The resin used for Chelex treatment was always fresh and had never been regenerated, ensuring consistent iron removal.
(§2) Minimal inhibitory concentrations (MICs) were performed using a broth microdilution technique according to the Clinical and Laboratory Standards Institute (CLSI) guidelines. MICs were determined in MHBCA and in ID-MHBCA. To check the impact of β-lactamases, MICs in the presence of a β-lactamase inhibitor were also determined. The inhibitor was homogenized at 2X the final concentration and added to the bacterial inoculum just before distributing cells into the wells containing the drug dilutions. The final concentration of each inhibitor was 4 μg/mL for clavulanic acid (tested against K. pneumoniae) and 200 μg/mL for 3-aminophenylboronic acid (tested against P. aeruginosa and A. baumannii).

[2] = system: P. aeruginosa ATCC 27853; test: MIC, broth microdilution (CLSI); format: cell-based, Pseudomonas aeruginosa; settings: for MIC in combination with PAβN: MHBCA, + 25 µg/mL PAβN
Protocol: as §1, with “conditions.” for “conditions. The resin used for Chelex treatment was always fresh and had never been regenerated, ensuring consistent iron removal.”
as §2

[3] = system: A. baumannii ATCC 19606; test: MIC, broth microdilution (CLSI); format: cell-based, Acinetobacter baumannii; settings: for MIC in combination with PAβN: MHBCA, + 25 µg/mL PAβN
Protocol: as §1, §2

[4] = system: E. coli ΔentE; test: MIC, Keio mutant; format: cell-based, Escherichia coli; settings: Escherichia coli
Protocol: as §1, with “conditions.” for “conditions. The resin used for Chelex treatment was always fresh and had never been regenerated, ensuring consistent iron removal.”
as §2

[5] = system: E. coli ΔfecA; test: MIC, Keio mutant; format: cell-based, Escherichia coli; settings: Escherichia coli
Protocol: as §1, with “conditions.” for “conditions. The resin used for Chelex treatment was always fresh and had never been regenerated, ensuring consistent iron removal.”
as §2

[6] = system: E. coli ΔfepA; test: MIC, Keio mutant; format: cell-based, Escherichia coli; settings: Escherichia coli
Protocol: as §1, with “conditions.” for “conditions. The resin used for Chelex treatment was always fresh and had never been regenerated, ensuring consistent iron removal.”
as §2

[7] = system: E. coli ΔtonB; test: MIC, Keio mutant; format: cell-based, Escherichia coli; settings: Escherichia coli
Protocol: as §1, with “conditions.” for “conditions. The resin used for Chelex treatment was always fresh and had never been regenerated, ensuring consistent iron removal.”
as §2

[8] = system: E. coli lptD4213; test: MIC, hyperpermeable mutant; format: cell-based, Escherichia coli
Protocol: as §1, §2

[9] = system: P. aeruginosa 2302 MexAB, MexCD, MexEF upregulated; test: MIC, efflux pump overexpressing strain; format: cell-based, Pseudomonas aeruginosa; settings: Pseudomonas aeruginosa
Protocol: as §2

[10] = target: T1, purified PBP3 of P. aeruginosa (PaPBP3) (Pseudomonas aeruginosa, UniProt G3XD46); test: biochemical; format: binding
T1 construct: (residues 53 to 579) from P. aeruginosa ATCC 27853 (PaPBP3); His6 (C); made in house; host or cells: E. coli BL21 DE3
T1 sequence (G3XD46 53-579): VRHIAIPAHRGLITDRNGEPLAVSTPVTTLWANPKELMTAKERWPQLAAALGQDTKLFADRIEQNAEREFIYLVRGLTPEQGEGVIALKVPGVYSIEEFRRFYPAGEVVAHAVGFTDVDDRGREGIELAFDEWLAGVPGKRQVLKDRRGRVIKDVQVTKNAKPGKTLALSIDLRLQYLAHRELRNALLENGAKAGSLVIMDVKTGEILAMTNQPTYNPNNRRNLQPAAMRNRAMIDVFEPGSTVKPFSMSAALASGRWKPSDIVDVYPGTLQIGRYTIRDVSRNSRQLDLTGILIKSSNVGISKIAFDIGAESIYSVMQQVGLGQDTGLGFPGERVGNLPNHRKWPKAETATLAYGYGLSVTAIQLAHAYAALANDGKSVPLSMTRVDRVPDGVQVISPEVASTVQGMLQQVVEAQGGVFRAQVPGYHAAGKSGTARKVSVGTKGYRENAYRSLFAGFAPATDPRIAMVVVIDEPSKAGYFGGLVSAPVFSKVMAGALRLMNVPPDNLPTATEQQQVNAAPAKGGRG
Protocol: The PBP binding assay was done as described previously[36],[56],[57]. For each antibiotic concentration tested, a quantity of 25 to 40 μg of membrane preparation was used as the source of PBPs, depending on the species. For the purified PaPBP3, 150 ng was used in the assay. First, increasing concentrations of the test antibiotic was added to the membrane or purified PaPBP3 preparations and incubated for 10 min at 30 °C. The reporter molecule Bocillin FL was then added at 12.5 μM for the membrane PBPs preparations and at 500 nM for the pure PaPBP3 samples for an additional 20 min at 30 °C. All reactions were stopped with the addition of the Laemmli-loading buffer (Bio-Rad) containing fresh β-mercaptoethanol (Sigma). All reactions were then heated at 100°C for 3 min before migration on SDS-polyacrylamide discontinuous gel system (7.5% stacking and 10% separating). Control samples without Bocillin FL were also included to highlight autofluorescent proteins that are not PBPs.
To be able to visualize labeled PBPs after electrophoresis, gels were rinsed in water and fixed in a solution of 50% methanol and 7% acetic acid for 30 min. The fluorescent images of gels were obtained with the Typhoon FLA 9500 instrument (GE-Healthcare Bio-Sciences Inc., Baie-d’Urfé, QC, CA) using a 473 nm excitation wavelength. To obtain quantifiable data, the software Quantity One 1D analysis was used (version 4.6.6; Bio-Rad Laboratories, Richmond, CA). The volume (intensity × constant area) of each PBP was measured. […] All IC50 data were obtained from at least two independent PBP binding assays using two different sets of compound concentrations using a linear regression.

[11] = Klebsiella pneumoniae, ATCC13883, ID-MHBCA (−), 0 µg/mL supplemental iron
[12] = Klebsiella pneumoniae, ATCC13883, ID-MHBCA + 1 µg/mL supplemental iron
[13] = Klebsiella pneumoniae, ATCC13883, MHBCA (+)
[14] = ID-MHBCA (−), 0 µg/mL supplemental iron, read-out: MIC
[15] = MHBCA (+), no inhibitor, read-out: MIC
[16] = Pseudomonas aeruginosa, ATCC27853, ID-MHBCA (−), 0 µg/mL supplemental iron, read-out: MIC
[17] = Pseudomonas aeruginosa, ATCC27853, ID-MHBCA + 1 µg/mL supplemental iron, read-out: MIC
[18] = Pseudomonas aeruginosa, ATCC27853, ID-MHBCA, + 200 μg/mL APB, read-out: MIC with β-lactamase inhibitor (βI)
[19] = Pseudomonas aeruginosa, ATCC27853, MHBCA (+), no inhibitor, read-out: MIC
[20] = Pseudomonas aeruginosa, ATCC27853, MHBCA, + 200 μg/mL 3-aminophenylboronic acid (APB), read-out: MIC with β-lactamase inhibitor (βI)
[21] = Acinetobacter baumannii, ATCC19606, ID-MHBCA (−), 0 µg/mL supplemental iron, read-out: MIC
[22] = Acinetobacter baumannii, ATCC19606, ID-MHBCA + 1 µg/mL supplemental iron, read-out: MIC
[23] = Acinetobacter baumannii, ATCC19606, ID-MHBCA, + 200 μg/mL APB, read-out: MIC with β-lactamase inhibitor (βI)
[24] = Acinetobacter baumannii, ATCC19606, MHBCA (+), no inhibitor, read-out: MIC
[25] = Acinetobacter baumannii, ATCC19606, MHBCA, + 200 μg/mL APB, read-out: MIC with β-lactamase inhibitor (βI)
[26] = Escherichia coli, LPTD4213, lptD4213, ID-MHBCA (−)
[27] = Escherichia coli, LPTD4213, lptD4213, MHBCA (+)

N[C@@H](C(=O)N[C@@H]1C(=O)N2C(C(=O)O)=C(Cl)CS[C@H]12)c1ccccc1 [CEF, cefaclor, reference compound]
MIC ratio 0/1 ([1]; ID-MHBCA, 0 and 1 µg/mL supplemental iron (Table S2)): 2
MIC ratio 1/0 ([1]; ID-MHBCA, 1 versus 0 µg/mL supplemental iron (peer review file table)): 2
MIC with β-lactamase inhibitor (βI) ([1]; ID-MHBCA): 1.6 µM
MIC [1, 11]: 3.1 µM (≈ 1.14 µg/mL)
MIC ([1]; Klebsiella pneumoniae, ATCC13883, ID-MHBCA + 0.1 µg/mL supplemental iron): 3.1 µM
MIC [1, 12]: 6.3 µM
MIC [1, 13]: 3.1 µM (≈ 1.14 µg/mL)
MIC with β-lactamase inhibitor (βI) ([1]; MHBCA): 1.6 µM
MIC [2, 14]: >200 µM
MIC [2, 15]: >200 µM
MIC in combination with PAβN [2]: > 200 µM
MIC [2, 16]: > 200 µM
MIC [2, 17]: > 200 µM
MIC [2, 18]: > 200 µM
MIC [2, 19]: > 200 µM
MIC [2, 20]: > 200 µM
MIC [3, 21]: > 200 µM
MIC [3, 22]: > 200 µM
MIC [3, 23]: > 200 µM
MIC [3, 24]: > 200 µM
MIC [3, 25]: > 200 µM
MIC [3, 14]: >200 µM
MIC [3, 15]: >200 µM
MIC in combination with PAβN [3]: > 200 µM
MIC ([4]; ID-MHBCA): 6.3 µM (≈ 2.32 µg/mL)
MIC ([4]; MHBCA): 6.3 µM (≈ 2.32 µg/mL)
MIC ([5]; ID-MHBCA): 6.3 µM (≈ 2.32 µg/mL)
MIC ([5]; MHBCA): 6.3 µM (≈ 2.32 µg/mL)
MIC ([6]; ID-MHBCA): 25 µM (≈ 9.2 µg/mL)
MIC ([6]; MHBCA): 13 µM (≈ 4.78 µg/mL)
MIC [7]: 13 µM (≈ 4.78 µg/mL)
MIC [8, 26]: 3.1 µM (≈ 1.14 µg/mL)
MIC [8, 27]: 3.1 µM (≈ 1.14 µg/mL)
MIC [9]: > 200 µM

CC1(C)S[C@@H]2[C@H](NC(=O)[C@H](N)c3ccccc3)C(=O)N2[C@H]1C(=O)O [AMP, ampicillin, reference compound]
MIC ([1]; ID-MHBCA (−), 0 µg/mL supplemental iron): >200 µM
MIC with β-lactamase inhibitor (βI) ([1]; ID-MHBCA): 6.3 µM
MIC [1, 11]: > 200 µM
MIC [1, 12]: > 200 µM
MIC [1, 13]: > 200 µM
MIC ([1]; MHBCA (+)): >200 µM
MIC with β-lactamase inhibitor (βI) ([1]; MHBCA): 6.3 μM and 6.3^d μM
MIC [2, 14]: >200 µM
MIC [2, 15]: >200 µM
MIC in combination with PAβN [2]: > 200 µM
MIC [2, 16]: > 200 µM
MIC [2, 17]: > 200 µM
MIC [2, 18]: 100 µM
MIC [2, 19]: > 200 µM
MIC [2, 20]: 100 µM
MIC [3, 21]: > 200 µM
MIC [3, 22]: > 200 µM
MIC [3, 23]: > 200 µM
MIC [3, 24]: > 200 µM
MIC [3, 25]: > 200 µM
MIC [3, 14]: >200 µM
MIC [3, 15]: >200 µM
MIC in combination with PAβN [3]: > 200 µM
MIC [8, 26]: 0.4 µM (≈ 0.14 µg/mL)
MIC [8, 27]: 0.4 µM (≈ 0.14 µg/mL)
MIC ([8]; lptD4213, MHBCA (+)): 0.4 µM (≈ 0.14 µg/mL)
MIC [9]: > 200 µM
IC50 [10]: 74 ± 29 nM

Source: PMC12592502, “Unraveling the mechanisms behind the enhanced efficacy of β-lactam-based sideromycins” (Communications Biology, 2025)
